According to PMC7932521, “2-aminobenzimidazoles for leishmaniasis: From initial hit discovery to in vivo profiling” (PLoS Neglected Tropical Diseases, 2021):
Converted amounts (≈) assume the structure as drawn.

tested on: not listed separately; test: Experimental distribution coefficient (eLogD); format: physicochemical; details: reverse stationary phase HPLC column (Ascentis RP-Amide), pH 7.4; S1 Data
Protocol: To determine the lipophilicity of the compounds, a methodology based on the retention time of molecules in reverse stationary phase (Ascentis RP-Amide HPLC column) was used. The chromatogram was obtained using LC-MS/MS. Test compounds were prepared at 1.0 μg/mL by adding the stock solution at (1:1) mobile phases A:B + internal standard at 200nM (A: 5% methanol in 10mM ammonium acetate pH 7.4, B: 100% methanol), DMSO concentration must be lower than 2%. […] The retention time (in minutes) of each of the eight standards was plotted against their LogD values. The resulting equation for the calibration curve (y = mx + b) was used to calculate the LogD values for the test compounds.

SMILES	chromatographic logD
N#Cc1ccc2nc(NC(=O)Cc3ccc(F)cc3F)n(CC(F)(F)F)c2c1 [Compound 24, Fc1cc(F)ccc1CC(Nc2nc(ccc(C#N)c3)c3n2CC(F)(F)F)=O]	3.85
O=C(Cc1ccc(F)cc1)Nc1nc2cc(F)ccc2n1CCCN1CCOCC1 [Compound 27, Fc1cc(nc(NC(=O)Cc2ccc(F)cc2)n3CCCN4CCOCC4)c3cc1]	3.42

tested on: Leishmania infantum MHOM/MA(BE)/67/ITMAP263 amastigotes; test: L. infantum intracellular amastigote assay in PMM; format: cell-based; details: CC50 / L. infantum IC50
Protocol: (§1) Leishmania infantum MHOM/MA(BE)/67/ITMAP263 amastigotes were collected from the spleen of infected donor Golden hamsters. Primary peritoneal mouse macrophages (PMM) were used as host cells for in vitro assays. PMM were collected from Swiss mice after 2 days of peritoneal stimulation with a 2% suspension of potato starch and maintained in RPMI-1640 medium supplemented with 200 mM L-glutamine, antibiotics and 5% FCS at 37°C and 5% CO2. Promastigotes of L. infantum chagasi (luciferase) (MHOM/BR/2005/NLC) obtained as described in Reimão et al.,[27] were grown in M199 medium supplemented with 10% FCS, 0.25% hemin, 32 μg/ml hygromycin and 2% sterile human urine at 25°C and 5% CO2.
(§2) Stock solutions of the compounds at 20 mM were prepared in 100% DMSO. Next, the compounds were serially pre-diluted in DMSO followed by a further dilution in demineralized water to assure a final in-test DMSO concentration below 1%. The compounds were tested at 4-fold dilutions starting at 64 μM.
For the antileishmania in vitro assays, 3×10^4 PMM/well were seeded in 96-well plates. After 24h, 5×10^5 amastigotes/well were added and incubated for 2h at 37°C. Next, the compounds in 4-fold serial dilutions were added and the plates were further incubated for 5 days (37°C, 5% CO2). Parasite burdens were assessed using an inverted microscope after Giemsa staining. The results were expressed as percent reduction in parasite burdens compared to negative control wells (100% growth) and IC50 values were determined. Values represent the geometric mean of at least two independent experiments. Miltefosine was used as the positive control in all plates.

SMILES	SI: selectivity index (CC50 / IC50)
COCCn1c(NC(=O)c2ccnn2C)nc2ccc(C#N)cc21 [Compound 50, O=C(c1ccnn1C)Nc2nc(ccc(C#N)c3)c3n2CCOC]	1
Cn1nccc1C(=O)Nc1nc2cncnc2n1CC(F)(F)F [Compound 55, O=C(c1ccnn1C)Nc2nc(cncn3)c3n2CC(F)(F)F]	2

same assay, conditions: Leishmania infantum, 120 h, intracellular amastigotes in PMM, 5 days; read-out: L. infantum IC50

SMILES	IC50 [µM]
COCCn1c(NC(=O)c2ccnn2C)nc2ccc(C#N)cc21 [Compound 50, O=C(c1ccnn1C)Nc2nc(ccc(C#N)c3)c3n2CCOC]	47
N#Cc1ccc2nc(NC(=O)Cc3ccc(F)cc3F)n(CC(F)(F)F)c2c1 [Compound 24, Fc1cc(F)ccc1CC(Nc2nc(ccc(C#N)c3)c3n2CC(F)(F)F)=O]	10
Cn1nccc1C(=O)Nc1nc2cncnc2n1CC(F)(F)F [Compound 55, O=C(c1ccnn1C)Nc2nc(cncn3)c3n2CC(F)(F)F]	4
O=C(Cc1ccc(F)cc1)Nc1nc2cc(F)ccc2n1CCCN1CCOCC1 [Compound 27, Fc1cc(nc(NC(=O)Cc2ccc(F)cc2)n3CCCN4CCOCC4)c3cc1]	24

same assay, conditions: Leishmania infantum, S1 Data; read-out: L. infantum IC50

SMILES	IC50 [µM]
COCCn1c(NC(=O)c2ccnn2C)nc2ccc(C#N)cc21 [Compound 50, O=C(c1ccnn1C)Nc2nc(ccc(C#N)c3)c3n2CCOC]	47
N#Cc1ccc2nc(NC(=O)Cc3ccc(F)cc3F)n(CC(F)(F)F)c2c1 [Compound 24, Fc1cc(F)ccc1CC(Nc2nc(ccc(C#N)c3)c3n2CC(F)(F)F)=O]	10.2
Cn1nccc1C(=O)Nc1nc2cncnc2n1CC(F)(F)F [Compound 55, O=C(c1ccnn1C)Nc2nc(cncn3)c3n2CC(F)(F)F]	4.03
O=C(Cc1ccc(F)cc1)Nc1nc2cc(F)ccc2n1CCCN1CCOCC1 [Compound 27, Fc1cc(nc(NC(=O)Cc2ccc(F)cc2)n3CCCN4CCOCC4)c3cc1]	23.5

tested on: not listed separately; test: MRC-5 cytotoxicity; format: cell-based; details: human, MRC-5 cells; S1 Data

SMILES	CC50 [µM]
COCCn1c(NC(=O)c2ccnn2C)nc2ccc(C#N)cc21 [Compound 50, O=C(c1ccnn1C)Nc2nc(ccc(C#N)c3)c3n2CCOC]	> 64
N#Cc1ccc2nc(NC(=O)Cc3ccc(F)cc3F)n(CC(F)(F)F)c2c1 [Compound 24, Fc1cc(F)ccc1CC(Nc2nc(ccc(C#N)c3)c3n2CC(F)(F)F)=O]	> 64
Cn1nccc1C(=O)Nc1nc2cncnc2n1CC(F)(F)F [Compound 55, O=C(c1ccnn1C)Nc2nc(cncn3)c3n2CC(F)(F)F]	24.8
O=C(Cc1ccc(F)cc1)Nc1nc2cc(F)ccc2n1CCCN1CCOCC1 [Compound 27, Fc1cc(nc(NC(=O)Cc2ccc(F)cc2)n3CCCN4CCOCC4)c3cc1]	60.9

tested on: not listed separately; test: Kinetic solubility; format: physicochemical; details: PBS buffer pH 7.4, aqueous buffer, kinetic from dmso stock; PBS pH 7.4; read-out: KS PBS - pH7.4
Protocol: The precipitates on the incubation plate were removed by centrifugation (15 min, 3000 rpm, r.t.); the compound concentration in the resulting supernatant was determined by LC-MS/MS. Results were calculated as the concentration of remaining compound in solution after incubation.

SMILES	solubility kinetic at 24 h [µg/mL]
COCCn1c(NC(=O)c2ccnn2C)nc2ccc(C#N)cc21 [Compound 50, O=C(c1ccnn1C)Nc2nc(ccc(C#N)c3)c3n2CCOC]	5.98 (≈ 18.4 µM)
Cn1nccc1C(=O)Nc1nc2cncnc2n1CC(F)(F)F [Compound 55, O=C(c1ccnn1C)Nc2nc(cncn3)c3n2CC(F)(F)F]	65 (≈ 200 µM)

same assay, conditions: PBS pH 2

SMILES	KS PBS - pH 2 [ug/mL]
COCCn1c(NC(=O)c2ccnn2C)nc2ccc(C#N)cc21 [Compound 50, O=C(c1ccnn1C)Nc2nc(ccc(C#N)c3)c3n2CCOC]	7.77
Cn1nccc1C(=O)Nc1nc2cncnc2n1CC(F)(F)F [Compound 55, O=C(c1ccnn1C)Nc2nc(cncn3)c3n2CC(F)(F)F]	64.44

tested on: not listed separately; test: Parallel artificial membrane permeability assay (PAMPA); format: in vitro ADME; details: PAMPA, S1 Data; read-out: PAMPA Pe
Protocol: To determine the passive permeability of the compounds, a 96-well plate containing membranes pre-coated with lipids (Corning Gentest # 353015) was used. The solutions of the compounds were prepared by diluting the stock solutions (10mM) in phosphate buffered saline (PBS) pH 6.5 at a final concentration of 10μM. The solutions diluted in PBS pH 6.5 were then added to the donor portion of the plate (300 μl/well), while PBS pH 7.4 (200 μl/well) was added to the acceptor portion. The two portions of the plate were then coupled, and the system was incubated for 5 h at 37°C. At the end of the incubation, samples were collected from the donor and acceptor plates, and then added to plates containing quench solution (10% water and 90% methanol: acetonitrile (50:50) + 50 nM tolbutamide). The final concentrations of compounds in the donor, acceptor, and initial solution (T0) wells were analyzed using LC-MS/MS. The results were used to calculate an effective permeability (Pe) value. The PAMPA assay was performed in triplicate (n = 3).

SMILES	Papp at 5 h, 10 μM [×10⁻⁶ cm/s]
COCCn1c(NC(=O)c2ccnn2C)nc2ccc(C#N)cc21 [Compound 50, O=C(c1ccnn1C)Nc2nc(ccc(C#N)c3)c3n2CCOC]	14.7
N#Cc1ccc2nc(NC(=O)Cc3ccc(F)cc3F)n(CC(F)(F)F)c2c1 [Compound 24, Fc1cc(F)ccc1CC(Nc2nc(ccc(C#N)c3)c3n2CC(F)(F)F)=O]	0.76
Cn1nccc1C(=O)Nc1nc2cncnc2n1CC(F)(F)F [Compound 55, O=C(c1ccnn1C)Nc2nc(cncn3)c3n2CC(F)(F)F]	13.6
O=C(Cc1ccc(F)cc1)Nc1nc2cc(F)ccc2n1CCCN1CCOCC1 [Compound 27, Fc1cc(nc(NC(=O)Cc2ccc(F)cc2)n3CCCN4CCOCC4)c3cc1]	4.74

tested on: not listed separately; test: HEPG2 cytotoxicity; format: cell-based; details: human, HepG2 cells; S1 Data
From the text: Supplement pntd.0009196.s001.xlsx, sheet "Complete Dataset" | column: HEPG2 CC50 (uM)

SMILES	CC50 [µM]
N#Cc1ccc2nc(NC(=O)Cc3ccc(F)cc3F)n(CC(F)(F)F)c2c1 [Compound 24, Fc1cc(F)ccc1CC(Nc2nc(ccc(C#N)c3)c3n2CC(F)(F)F)=O]	> 64

tested on: PMM (Primary Mouse Macrophages); test: Cytotoxicity on primary peritoneal mouse macrophages; format: cell-based; details: Mus musculus, Macrophage, read-out: PMM IC50
Protocol: as §1, §2

SMILES	IC50 [µM]
COCCn1c(NC(=O)c2ccnn2C)nc2ccc(C#N)cc21 [Compound 50, O=C(c1ccnn1C)Nc2nc(ccc(C#N)c3)c3n2CCOC]	> 64
N#Cc1ccc2nc(NC(=O)Cc3ccc(F)cc3F)n(CC(F)(F)F)c2c1 [Compound 24, Fc1cc(F)ccc1CC(Nc2nc(ccc(C#N)c3)c3n2CC(F)(F)F)=O]	16
Cn1nccc1C(=O)Nc1nc2cncnc2n1CC(F)(F)F [Compound 55, O=C(c1ccnn1C)Nc2nc(cncn3)c3n2CC(F)(F)F]	8
O=C(Cc1ccc(F)cc1)Nc1nc2cc(F)ccc2n1CCCN1CCOCC1 [Compound 27, Fc1cc(nc(NC(=O)Cc2ccc(F)cc2)n3CCCN4CCOCC4)c3cc1]	45.2

tested on: not listed separately; test: Mouse liver microsomal stability; format: in vitro ADME; details: CD1, mouse, liver microsomes, pH 7.4, S1 Data; read-out: MLM CLint
Protocol: The metabolic stability of the compounds was evaluated in human (pool of 200 donors, XenoTech) and mouse liver microsomes (CD1 mouse, GIBCO). Test compounds were prepared at a concentration of 0.5 μM and incubated with 0.25 mg/mL liver microsomes at pH 7.4 and 37°C. The reaction was started by addition of NADPH at […]. Samples were taken at 0, 5, 10, 15, 20 and 30 minutes. The reaction was stopped by the addition of acetonitrile:methanol (1:1) containing an internal standard (tolbutamide at 50 nM). Compounds were quantified by liquid chromatography triple quadrupole mass spectrometry (LC-MS/MS). Peak area ratios (analyte/internal standard) were converted to % remaining using the area ratio at time 0 as 100%. Half-life (t1/2 = ln(2)/k) in minutes and intrinsic clearance (Clint = k x 1000/(0.25)) in μL/min/mg were calculated using a non-linear regression from % remaining versus incubation time. From this plot, the slope (k) was determined. The analysis conditions were: analytical column (Gemini C18, […], Phenomenex), electrospray ionization source (ESI) in positive and negative mode, mobile phase A (water + 0.1% formic acid) and B (acetonitrile + 0.1% formic acid), flow rate of 0.7 mL/min.

SMILES	microsomal CLint at 0.5 μM [µL/min/mg]
N#Cc1ccc2nc(NC(=O)Cc3ccc(F)cc3F)n(CC(F)(F)F)c2c1 [Compound 24, Fc1cc(F)ccc1CC(Nc2nc(ccc(C#N)c3)c3n2CC(F)(F)F)=O]	20
O=C(Cc1ccc(F)cc1)Nc1nc2cc(F)ccc2n1CCCN1CCOCC1 [Compound 27, Fc1cc(nc(NC(=O)Cc2ccc(F)cc2)n3CCCN4CCOCC4)c3cc1]	335

same assay, conditions: CD1, mouse, liver microsomes, pH 7.4, mouse liver microsome intrinsic clearance; read-out: MLM Clint

SMILES	microsomal CLint at 0.5 μM [µL/min/mg]
N#Cc1ccc2nc(NC(=O)Cc3ccc(F)cc3F)n(CC(F)(F)F)c2c1 [Compound 24, Fc1cc(F)ccc1CC(Nc2nc(ccc(C#N)c3)c3n2CC(F)(F)F)=O]	19.6

same assay, conditions: S1 Data

SMILES	MLM CLint [µL/min/mg]
COCCn1c(NC(=O)c2ccnn2C)nc2ccc(C#N)cc21 [Compound 50, O=C(c1ccnn1C)Nc2nc(ccc(C#N)c3)c3n2CCOC]	98
Cn1nccc1C(=O)Nc1nc2cncnc2n1CC(F)(F)F [Compound 55, O=C(c1ccnn1C)Nc2nc(cncn3)c3n2CC(F)(F)F]	24
